# Results as given in patent US20020107401A1, “Production of phosphonopyrazoles” (MONSNTO TECHNOLOGY LLC., priority 2000, published 2002).
# Test system: wheat variety 'OSLO'
# Assay: Chemical hybridizing agent assay for male sterility (male gametocidal activity), foliar spray, seed counts
# Assay type: in vivo
# Procedure: The compounds of structure 3 and analogs are applied at a rate of 50-1000 μg/plant to cause pollen sterility. The male gametocidal activity is determined on the wheat variety ‘OSLO’, a double-dwarf hard red spring wheat. The wheat seed is planted to a depth of 0.5 to 1 inch (1-2.5 cm) in a 6-inch long (15 cm) conetainer (a cone shaped container, one seed per conetainer). The conetainers are filled with Metromix 200 potting soil supplemented with a slow release fertilizer, Osmocote and Sierra combined at 93 g/cu ft soil for a NPK of 31-20-24. Micromax with micronutrients is added at 17 g/cu ft rate. Fertilizer supplier is Hummerts, Earth City, Mo. 63045. The RLC-4 conetainers are 1×6 inch (2.5×15 cm) with a capacity of 4 cu in. (Stuewe & Sons, Inc., Corvallis, Oreg., 97333-9461). These are loaded into racks of 100 that occupy a 1.0 ft by 1.0 ft area. After seeding, the racks are placed in growth chambers with 14/10 hour day/night cycle at 18° C. These chambers are equipped with metal halide lamps that deliver approximately 300 μE/m^2/sec. Humidity is maintained at 50%, and plants are watered as needed. Approximately six weeks after seeding, wheat plants are selected for chemical application at or just prior to flag-leaf emergence from the boot (Feekes Scale 7.5-8.0) (Large, 1954. Plant Pathology 3:128-129). Plants are placed in a rack containing cardboard dividers to prevent each from being cross contaminated by an adjacent spray. The following procedures are used to evaluate the activity of the compounds of the invention for inducing male sterility in cereals. The plant heights vary and as uniformity is required for chemical application, the top 0-10 cm are removed by excision, such that the plant height is flush with the top of the divider. Prior to application, a 50 mL solution of DMSO (dimethylsulfoxide) containing the chemical hybridizing agent is diluted with 150 mL of water containing 1% SILWET L-77 surfactant (Witco Corp., Greenwich, Conn. 06831-2559) plus 2% humectant (glycerin, supplied by VWR Scientific Products Co.). The formulated chemicals are applied foliarly as an atomized spray onto the plants. After application, the plants are moved into growth chambers and allowed to grow until the heads emerge from the boot. Prior to anther extrusion (approximately 10 to 14 days after treatment), the plants are placed back into dividers in order to isolate the seed heads and to prevent cross-pollination. The plants are moved to a greenhouse, which has similar environmental conditions as the growth chambers. Approximately one week later (3 weeks after treatment (WAT) and at anther extrusion), open head morphology ratings are initiated. Plants are rated four times over a period of eight days (Table 2). The chemical hybridizing agent Genesis® (a registered Trade Mark of the Monsanto Co) is used as the positive control and for comparative purposes as to the rate of application and the efficacy as determined by percent sterility. The negative control is treatment of the wheat plants with the compounds making up the formulation of surfactant and humectant without the chemical compositions being assayed as chemical hybridizing agents. The data in Table 2 is expressed as % Sterility=(1-(Ave. normalized seed counts of sample/Ave. normalized seed counts of controls))*100 with the treatments comprising foliar application and rate titration at Feekes stage 8, across five replicates. Approximately two weeks after open head ratings are completed (six WAT), seed counts are collected.
# [1] = Table 2, rate 50 μg/plant, foliar, Feekes 6
# [2] = Table 2, rate 50 μg/plant, foliar, Feekes 8
# [3] = Table 2, rate 125 μg/plant, foliar, Feekes 6
# [4] = Table 2, rate 125 μg/plant, foliar, Feekes 8
# [5] = Table 2, rate 250 μg/plant, foliar, Feekes 6
# [6] = Table 2, rate 250 μg/plant, foliar, Feekes 8
# [7] = Table 2, rate 500 μg/plant, foliar, Feekes 6
# [8] = Table 2, rate 500 μg/plant, foliar, Feekes 8
# [9] = Table 2, rate 1000 μg/plant, foliar, Feekes 8
compound,measurement,setting,value
"COP(=O)(OC)c1cnn(-c2ccc(Cl)cc2)c1O [Compound 3a, Dimethyl [1-(4-chlorophenyl)-5-hydroxy-1H-pyrazol-4-yl]phosphonate]",Sterility (%),[1],27%
same,Sterility (%),[2],39%
same,Sterility (%),[3],0%
same,Sterility (%),[4],34%
same,Sterility (%),[5],0%
same,Sterility (%),[6],79%
same,Sterility (%),[7],49%
same,Sterility (%),[8],92%
"COP(=O)(OC)c1cnn(-c2ccc(F)cc2)c1O [Compound 3b, Dimethyl [1-(4-fluorophenyl)-5-hydroxy-1H-pyrazol-4-yl]phosphonate]",Sterility (%),[2],23%
same,Sterility (%),[4],30%
same,Sterility (%),[6],90%
same,Sterility (%),[8],91%
same,Sterility (%),[9],98%
"COP(=O)(OC)c1cnn(-c2ccccc2Cl)c1O [Compound 3c, Dimethyl [1-(2-chlorophenyl)-5-hydroxy-1H-pyrazol-4-yl]phosphonate]",Sterility (%),[2],25%
same,Sterility (%),[4],29%
same,Sterility (%),[6],18%
same,Sterility (%),[8],53%
same,Sterility (%),[9],36%
"COP(=O)(OC)c1cnn(-c2ccc(Br)cc2)c1O [Compound 3d, Dimethyl [1-(4-bromophenyl)-5-hydroxy-1H-pyrazol-4-yl]phosphonate]",Sterility (%),[2],0%
same,Sterility (%),[4],0%
same,Sterility (%),[6],17%
same,Sterility (%),[8],15%
same,Sterility (%),[9],54%
"COP(=O)(OC)c1cnn(C2CCCCC2)c1O [Compound 3e, Dimethyl [1-cyclohexyl-5-hydroxy-1H-pyrazol-4-yl]phosphonate]",Sterility (%),[2],15%
same,Sterility (%),[4],3%
same,Sterility (%),[6],17%
same,Sterility (%),[8],26%
same,Sterility (%),[9],44%
"O=P(O)(O)C1=CNN(c2ccc(Cl)cc2)C1O (stereo not drawn) [Compound 3j, 2-(4-Chlorophenyl)-3-hydroxy-1H-pyrazol-4-yl phosphonic acid]",Sterility (%),[1],4%
same,Sterility (%),[2],31%
same,Sterility (%),[3],7%
same,Sterility (%),[4],13%
same,Sterility (%),[5],0%
same,Sterility (%),[6],0%
same,Sterility (%),[7],35%
same,Sterility (%),[8],12%
"COP(=O)([O-])c1cnn(-c2cc(C)cc(C)c2)c1O.[K+] [Compound 3l, methyl potassium[2-(3,5-dimethylphenyl)-3-hydroxy-1H-pyrazol-4-yl]phosphonate]",Sterility (%),[1],0%
same,Sterility (%),[2],12%
same,Sterility (%),[3],17%
same,Sterility (%),[4],28%
same,Sterility (%),[5],39%
same,Sterility (%),[6],24%
same,Sterility (%),[7],54%
same,Sterility (%),[8],39%
"Cc1cc(C)cc(-n2ncc(P(=O)([O-])O)c2O)c1.[K+] [Compound 3n, hydrogen potassium[2-(3,5-dimethylphenyl)-3-hydroxy-1H-pyrazol-4-yl]phosphonate]",Sterility (%),[1],7%
same,Sterility (%),[2],15%
same,Sterility (%),[3],7%
same,Sterility (%),[4],11%
same,Sterility (%),[5],10%
same,Sterility (%),[6],4%
same,Sterility (%),[7],31%
same,Sterility (%),[8],20%
"COP(=O)(OC)c1cnn(-c2ccc(Cl)cc2)c1OCc1ccc(Cl)cc1 [Compound 4a, Dimethyl{1-(4-Chlorophenyl)-5-[(4-chlorobenzyl)oxy]-1H-pyrazol-4-yl}phosphonate]",Sterility (%),[1],0%
same,Sterility (%),[2],48%
same,Sterility (%),[3],0%
same,Sterility (%),[4],80%
same,Sterility (%),[5],9%
same,Sterility (%),[6],93%
same,Sterility (%),[7],34%
same,Sterility (%),[8],93%
"COP(=O)(OC)c1cnn(-c2ccc(Cl)cc2)c1OCc1ccccc1[N+](=O)[O-] [Compound 4b, Dimethyl{1-(4-chlorophenyl)-5-[(2-nitrobenzyl)oxy]-1H-pyrazol-4-yl}phosphonate]",Sterility (%),[1],0%
same,Sterility (%),[2],16%
same,Sterility (%),[3],0%
same,Sterility (%),[4],0%
same,Sterility (%),[5],0%
same,Sterility (%),[6],57%
same,Sterility (%),[7],0%
same,Sterility (%),[8],94%
"CCn1cc(P(=O)(OC)OC)c(=O)n1-c1ccc(Cl)cc1 [Compound 5a, Dimethyl [2-(4-chlorophenyl)-2,3-dihydro-1-ethyl-3-oxo-pyrazol-4-yl]phosphonate]",Sterility (%),"Table 4, rate 50 μg/plant",11%
same,Sterility (%),"Table 4, rate 125 μg/plant",26%
same,Sterility (%),"Table 4, rate 250 μg/plant",66%
same,Sterility (%),"Table 4, rate 500 μg/plant",29%
same,Sterility (%),"Table 4, rate 1000 μg/plant",10%
"COP(=O)(OC)c1cn(C2CCCCC2)n(-c2ccc(Cl)cc2)c1=O [Compound 5b, Dimethyl[2-(4-chlorophenyl)-1-cyclohexyl-2,3-dihydro-3-oxo-pyrazol-4-yl]phosphonate]",Sterility (%),"Table 4, rate 50 μg/plant",0%
same,Sterility (%),"Table 4, rate 125 μg/plant",14%
same,Sterility (%),"Table 4, rate 250 μg/plant",20%
same,Sterility (%),"Table 4, rate 500 μg/plant",23%
same,Sterility (%),"Table 4, rate 1000 μg/plant",62%
"CCn1cc(P(=O)(OC)OC)c(=O)n1-c1cc(C)cc(C)c1 [Compound 5c, Dimethyl[2-(3,5-dimethylphenyl)-2,3-dihydro-1-ethyl-3-oxo-pyrazol-4-yl]phosphonate]",Sterility (%),"Table 4, rate 50 μg/plant",8%
same,Sterility (%),"Table 4, rate 125 μg/plant",1%
same,Sterility (%),"Table 4, rate 250 μg/plant",16%
same,Sterility (%),"Table 4, rate 500 μg/plant",48%
same,Sterility (%),"Table 4, rate 1000 μg/plant",31%
"CCCCn1cc(P(=O)(OC)OC)c(=O)n1-c1cc(C)cc(C)c1 [Compound 5d, Dimethyl[1-butyl-2-(3,5-dimethylphenyl)-2,3-dihydro-3-oxo-pyrazol-4-yl]phosphonate]",Sterility (%),"Table 4, rate 50 μg/plant",29%
same,Sterility (%),"Table 4, rate 125 μg/plant",0%
same,Sterility (%),"Table 4, rate 250 μg/plant",28%
same,Sterility (%),"Table 4, rate 500 μg/plant",24%
same,Sterility (%),"Table 4, rate 1000 μg/plant",41%
"COP(=O)(OC)c1cn(-c2ccc(Br)cc2)nc1O [Compound 8a, Dimethyl [1-(4-bromophenyl)-3-hydroxy-1H-pyrazol-4-yl]phosphonate]",Sterility (%),"Table 3, rate 50 μg/plant",12%
same,Sterility (%),"Table 3, rate 125 μg/plant",0%
same,Sterility (%),"Table 3, rate 250 μg/plant",44%
same,Sterility (%),"Table 3, rate 500 μg/plant",25%
same,Sterility (%),"Table 3, rate 1000 μg/plant",15%
"COP(=O)(OC)c1c(-c2ccccc2)nn(-c2ccc(Cl)cc2)c1O [Compound 10a, Dimethyl [1-(4-chlorophenyl)-5-hydroxy-3-phenyl-1H-pyrazol-4-yl]phosphonate]",Sterility (%),[2],1%
same,Sterility (%),[4],0%
same,Sterility (%),[6],27%
same,Sterility (%),[8],18%
same,Sterility (%),[9],45%
"COP(=O)(OC)c1c(-c2ccccc2)nn(-c2cc(C)cc(C)c2)c1O [Compound 10b, Dimethyl[1-(3,5-dimethylphenyl)-5-hydroxy-3-phenyl-1H-pyrazol-4-yl]phosphonate]",Sterility (%),[2],5%
same,Sterility (%),[4],0%
same,Sterility (%),[6],11%
same,Sterility (%),[8],33%
same,Sterility (%),[9],45%
methyl potassium[4-chlorophenyl-3-hydroxy-1H-pyrazol-4-yl]phosphonate [Compound 3m],Sterility (%),[1],23%
same,Sterility (%),[2],28%
same,Sterility (%),[3],0%
same,Sterility (%),[4],20%
same,Sterility (%),[5],31%
same,Sterility (%),[6],16%
same,Sterility (%),[7],43%
same,Sterility (%),[8],15%
